Laboratory results reported in PMC9658812, “New Pyrimidine-5-Carbonitriles as COX-2 Inhibitors: Design, Synthesis, Anticancer Screening, Molecular Docking, and In Silico ADME Profile Studies” (Molecules, 2022).

Tests used:
human COX-2 = biological target: T1, human COX-2 (Homo sapiens, UniProt P35354); assay: COX-2 inhibition assay (fluorometric inhibitor screening kit); type: biochemical; settings: for inhibition at 10 µM: 10^−5 M; for inhibition at 10 µM / inhibition at 1 µM / inhibition at 0.1 µM / inhibition at 0.01 µM / inhibition at 0.001 µM: mean of three experiments ± SD, read-out: COX-2 Inhibition (%); for inhibition at 1 µM: 10^−6 M; for inhibition at 0.1 µM: 10^−7 M; for inhibition at 0.01 µM: 10^−8 M; for inhibition at 0.001 µM: 10^−9 M; for IC50: human COX-2 assay kit, three experiments; for fold more potent than Nimesulide (COX-2 IC50): versus Nimesulide
T1 construct: purchased Biovision, Zurich, Switzerland
T1 sequence (P35354 18-604): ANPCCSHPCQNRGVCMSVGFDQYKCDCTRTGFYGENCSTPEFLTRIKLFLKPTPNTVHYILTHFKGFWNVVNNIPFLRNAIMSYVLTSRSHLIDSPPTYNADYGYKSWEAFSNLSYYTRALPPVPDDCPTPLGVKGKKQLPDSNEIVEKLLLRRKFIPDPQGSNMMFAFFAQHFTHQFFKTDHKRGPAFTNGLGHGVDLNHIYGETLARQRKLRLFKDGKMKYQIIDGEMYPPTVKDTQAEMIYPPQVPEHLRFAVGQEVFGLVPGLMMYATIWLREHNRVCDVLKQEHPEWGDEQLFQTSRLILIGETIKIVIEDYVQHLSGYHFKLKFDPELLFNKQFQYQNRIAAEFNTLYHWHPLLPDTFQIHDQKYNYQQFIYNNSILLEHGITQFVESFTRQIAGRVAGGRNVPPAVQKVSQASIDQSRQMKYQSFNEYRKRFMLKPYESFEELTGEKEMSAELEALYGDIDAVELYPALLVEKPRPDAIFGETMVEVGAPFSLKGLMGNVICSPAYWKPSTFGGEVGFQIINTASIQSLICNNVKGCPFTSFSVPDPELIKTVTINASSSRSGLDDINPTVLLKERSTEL
Text: Fluorometric inhibitor screening kits (Biovision, Zurich, Switzerland) were utilized for the COX-2 enzyme inhibition test, as described before.

[1] = test system: A549 cells (non-small-cell lung cancer); assay: MTT cytotoxicity assay, A549; settings: for IC50: Homo sapiens, A549, 24 h, read-out: Cytotoxicity IC50 A549
Protocol: (§1) Breast carcinoma (MCF-7), renal cell carcinoma (A498), lung cancer (A549), and liver carcinoma (HepG2) cell lines, in addition to non-tumorigenic WI-38 cell lines, were collected from the American Type Culture Collection. The cells were grown in DMEM (Invitrogen/Life Technologies) containing 1% penicillin-streptomycin, 10 µg/mL of insulin (Sigma), and 10% FBS (Hyclone).
(§2) To check the possible cellular toxicity, synthesized compounds were subjected to the MTT [3-(4,5-dimethylthiazol-2-yl)-2,5-diphenyltetrazolium bromide] assay against the MCF7, A549, A498, and HepG2 cell lines. […] Later, 2.0–3.0 mL of Trypsin EDTA solution was added into the flask containing the cell layers for 5–15 min to disperse the cell layer, which was observed through an inverted microscope. By gently pipetting, aspirated cells were added into a 6.0–8.0 mL growth medium. […] An amount of 20 μL of a 5-mg/mL MTT solution was applied after a 24-h drug-treatment period, and it was incubated for 4 h. To dissolve the produced purple formazan, each well received 100 μL of dimethyl sulfoxide (DMSO).

[2] = test system: HepG2 cells (liver carcinoma); assay: MTT cytotoxicity assay, HepG2; settings: for IC50: Homo sapiens, HepG2, 24 h, read-out: Cytotoxicity IC50 HepG2
Protocol: as §1, §2

[3] = test system: A498 cells (renal carcinoma); assay: MTT cytotoxicity assay, A498; settings: for IC50: Homo sapiens, A498, 24 h, read-out: Cytotoxicity IC50 A498; for fold more cytotoxic than doxorubicin, A498: versus doxorubicin
Protocol: as §1, §2

[4] = test system: MCF7 cells (breast carcinoma); assay: MTT cytotoxicity assay, MCF7; settings: for IC50: Homo sapiens, MCF7, 24 h, read-out: Cytotoxicity IC50 MCF7; for fold more cytotoxic than doxorubicin, MCF7: versus doxorubicin
Protocol: as §1, §2

[5] = test system: WI-38 cells (normal cell derived from lung tissue); assay: Cytotoxicity on non-tumorigenic WI-38 cell line; settings: Homo sapiens, WI-38, read-out: WI-38 IC50
Protocol: as §1, §2

Row | SMILES | inhibition at 10 µM (human COX-2) | inhibition at 1 µM (human COX-2) | inhibition at 0.1 µM (human COX-2) | inhibition at 0.01 µM (human COX-2) | inhibition at 0.001 µM (human COX-2) | IC50 (human COX-2) | fold more potent than Nimesulide (COX-2 IC50) (human COX-2) | melting point | IC50 [1] | IC50 [2] | IC50 [3] | fold more cytotoxic than doxorubicin, A498 [3] | IC50 [4] | fold more cytotoxic than doxorubicin, MCF7 [4] | IC50 [5] | fold more cytotoxic than doxorubicin, A549 ([1]; versus doxorubicin) | fold more cytotoxic than doxorubicin, HepG2 ([2]; versus doxorubicin)
1 | COc1ccc(-c2nc(NCc3nc4ccccc4[nH]3)nc(OC)c2C#N)cc1 [Compound 3a, 2-((1H-Benzo[d]imidazol-2-yl)methylamino)-4-methoxy-6-(4-methoxyphenyl)pyrimidine-5-carbonitrile] | 71.2 ± 1.13% | 62.5 ± 0.95% | 41.1 ± 0.55% | 32 ± 0.61% | 22.3 ± 0.45% | 230 ± 10 nM | – | – | – | – | – | – | – | – | – | – | –
2 | COc1ccc(-c2nc(NCc3nc4ccccc4o3)nc(OC)c2C#N)cc1 [Compound 3b, 2-(Benzo[d]oxazol-2-Ylmethylamino)-4-methoxy-6-(4-methoxyphenyl)pyrimidine-5-carbonitrile] | 40.3 ± 0.62% | 33.3 ± 0.77% | 22.4 ± 0.59% | 77.01 ± 0.03% | 61.3 ± 0.96% | 200 ± 10 nM | approximately 4.7 fold | > 300 °C | 19 ± 0.52 nM | 22 ± 0.62 nM | 4 ± 0.15 nM | two-fold | 3 ± 0.1 nM | three | 94700 ± 2500 nM | – | –
3 | COc1ccc(-c2nc(NCc3nc4ccccc4s3)nc(OC)c2C#N)cc1 [Compound 3c, 2-(Benzo[d]thiazol-2-ylmethylamino)-4-methoxy-6-(4-methoxyphenyl)pyrimidine-5-carbonitrile] | 74.3 ± 1.03% | 57.1 ± 0.92% | 37.6 ± 0.6% | 32.5 ± 0.53% | 21 ± 0.4% | 290 ± 10 nM | – | > 300 °C | – | – | – | – | – | – | – | – | –
4 | COc1ccc(-c2nc(NCc3cc4ccccc4s3)nc(OC)c2C#N)cc1 [Compound 3d, 2-(Benzo[b]thiophen-2-ylmethylamino)-4-methoxy-6-(4-methoxyphenyl)pyrimidine-5-carbonitrile] | 38.3 ± 0.63% | 31.6 ± 0.54% | 21.5 ± 0.49% | 70.3 ± 1.11% | 60.4 ± 0.98% | 340 ± 10 nM | – | > 300 °C | – | – | – | – | – | – | – | – | –
5 | COc1ccc(-c2nc(NS(=O)(=O)c3ccccc3)nc(OC)c2C#N)cc1 [Compound 5a, N-(5-Cyano-4-methoxy-6-(4-methoxyphenyl)pyrimidin-2-yl)benzenesulfonamide] | 40.1 ± 0.57% | 30.2 ± 0.49% | 23.6 ± 0.51% | 72.2 ± 1.31% | 61.3 ± 0.84% | 260 ± 10 nM | – | 241 to 243 °C | – | – | – | – | – | – | – | – | –
6 | COc1ccc(-c2nc(NS(=O)(=O)c3ccc(C)cc3)nc(OC)c2C#N)cc1 [Compound 5b, N-(5-Cyano-4-methoxy-6-(4-methoxyphenyl)pyrimidin-2-yl)-4-methylbenzene-sulfonamide] | 40.2 ± 0.58% | 36.2 ± 0.44% | 24.7 ± 0.31% | 75.2 ± 1.11% | 59.5 ± 1.04% | 180 ± 10 nM | ~9.3 fold | 283 to 285 °C | 3 ± 0.07 nM | 12 ± 0.38 nM | 1 ± 0.05 nM | 7 fold | 2 ± 0.05 nM | 4.5 fold | 89600 ± 2750 nM | 4.3 fold | 2.1 fold
7 | COc1ccc(-c2nc(NS(=O)(=O)c3ccc(C(C)(C)C)cc3)nc(OC)c2C#N)cc1 [Compound 5c, 4-Tert-Butyl-N-(5-cyano-4-methoxy-6-(4-methoxyphenyl)pyrimidin-2-yl)benzene sulfonamide] | 42.1 ± 0.93% | 28.7 ± 0.51% | 20.3 ± 0.52% | 73.2 ± 1.21% | 64.3 ± 1.05% | 260 ± 10 nM | – | 276 to 278 °C | – | – | – | – | – | – | – | – | –
